Assay results published in patent publication US20080125395A1, “COMPOSITIONS AND METHODS FOR THE TREATMENT OF SKIN” (priority 1999, published 2008).

Test system: rosacea
Assay: topical treatment of rosacea in human subjects (case reports)
Format: in vivo
Details: long-term use by subjects with facial rosacea
Excerpt: A second subject was a person who suffered from disfiguring rosacea on their face for 14 years. […] After failure of the cortisone treatment to provide adequate relief, the subject used an ascorbic acid, zinc sulfate and tyrosine formulation once a day. The ascorbic acid composition provided slight relief, but the subject's rosacea never cleared up adequately. The subject then used the same ascorbic acid formulation to which 20% (w/v) glucosamine had been added.
FIG. 4 provides an exemplary depiction of the cosmetic and therapeutic benefits of the present invention. A subject used an embodiment of the present invention containing glucosamine for one week. Before using the embodiment (panel A), the subject suffered from disfiguring rosacea blemishes on their face. […] In one week, the size of blemishes has decreased and the intensity of the rosacea has abated, although some scarring (resulting from years of severe inflammatory lesions that had not responded to previous treatments) remains.

Compound: C[C@]12CCC(=O)C=C1CC[C@@H]1[C@@H]2[C@@H](O)C[C@@]2(C)[C@H]1CC[C@]2(O)C(=O)CO [hydrocortisone]
- control of rosacea inflammation: partially control
